Measured values from the supplement of paper PMC8617591.

Key:
[1] = tested on: Mycobacterium tuberculosis Erdman (autoluminescent); assay: total FIC50 (Loewe) at 50% inhibition, three-drug combination (log2); higher = more antagonistic
Description: (§1)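 DiaMOND equipotent three-drug combination dose responses (10 doses, 1.5- or 2-fold spacing, centred on IC90) against autoluminescent M. tuberculosis Erdman in 8 in vitro models. Read-out is OD600, or luminescence for the intracellular and dormancy models, normalised to untreated wells. Hill-fit Einf, AUC25 and GRinf are potency metrics; FIC50 and FIC90 are total Loewe fractional inhibitory concentrations as log2 (negative = synergy).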

[2] = tested on: Mycobacterium tuberculosis Erdman (autoluminescent); assay: total FIC90 (Loewe) at 90% inhibition, three-drug combination (log2); higher = more antagonistic
Description: as §1

[3] = tested on: Mycobacterium tuberculosis Erdman (autoluminescent); assay: AUC25, normalised area under dose response up to IC25 (three-drug combination) (fraction (0-1)); higher = more potent at low dose
Description: as §1

[4] = tested on: Mycobacterium tuberculosis Erdman (autoluminescent); assay: Einf, fitted maximum growth inhibition of three-drug combination (fraction); higher = stronger maximal inhibition
Description: as §1

[5] = tested on: Mycobacterium tuberculosis Erdman (autoluminescent); assay: GRinf, maximum normalised growth rate inhibition (three-drug combination) (unitless (-1 to 1)); higher = less effect (negative = killing)
Description: as §1

CC(C)/N=c1\cc2n(-c3ccc(Cl)cc3)c3ccccc3nc-2cc1Nc1ccc(Cl)cc1 [clofazimine] + O=[N+]([O-])c1cn2c(n1)OC[C@@H](OCc1ccc(OC(F)(F)F)cc1)C2 [pretomanid] + CO[C@H]1/C=C/O[C@@]2(C)Oc3c(C)c(O)c4c(O)c(c(/C=N/N5CCN(C)CC5)c(O)c4c3C2=O)NC(=O)/C(C)=C\C=C\[C@H](C)[C@H](O)[C@@H](C)[C@@H](O)[C@@H](C)[C@H](OC(C)=O)[C@@H]1C [rifampicin]
Conditions	AUC25, [3]	Einf, [4]	GRinf, [5]	total FIC50, [1]	total FIC90, [2]
in vitro model: acidic pH 5.7, time point: constant (~7 days, model-specific)	0.113	0.916	-0.179	0.218	–
in vitro model: acidic pH 5.7, time point: terminal (~4-5 doublings, model-specific)	0.073	0.989	-0.161	0.575	0.276
in vitro model: intracellular J774, time point: constant = terminal	–	0.992	-0.685	–	-0.529

Conditions	AUC25, [3]	Einf, [4]	GRinf, [5]	total FIC50, [1]	total FIC90, [2]
in vitro model: butyrate, time point: constant (~7 days, model-specific)	0.104	0.936	-0.134	0.432	0.0534
in vitro model: butyrate, time point: terminal (~4-5 doublings, model-specific)	0.0947	0.977	-0.128	0.197	0.399
in vitro model: cholesterol 0.05 mM, time point: constant (~7 days, model-specific)	0.124	0.696	-0.174	1.03	–
in vitro model: cholesterol 0.05 mM, time point: terminal (~4-5 doublings, model-specific)	0.0924	0.844	0.0526	1.18	0.826
in vitro model: cholesterol-high 0.2 mM, time point: constant (~7 days, model-specific)	0.0944	0.891	-0.242	1.29	1.16
in vitro model: cholesterol-high 0.2 mM, time point: terminal (~4-5 doublings, model-specific)	0.0908	1	-0.716	1.57	1.36
in vitro model: dormancy (butyrate + nitrate, low O2), time point: constant (~7 days, model-specific)	0.0988	0.938	0.038	-0.678	-1.51
in vitro model: dormancy (butyrate + nitrate, low O2), time point: terminal (~4-5 doublings, model-specific)	0.0571	0.993	-0.337	-0.503	-0.477
in vitro model: standard 7H9 glycerol, time point: constant = terminal	0.11	0.93	0.0153	-0.349	-0.0486
in vitro model: valerate, time point: constant (~7 days, model-specific)	0.0751	0.857	0.0268	0.706	–
in vitro model: valerate, time point: terminal (~4-5 doublings, model-specific)	0.0551	0.929	0.0406	0.736	0.763

CC(C)/N=c1\cc2n(-c3ccc(Cl)cc3)c3ccccc3nc-2cc1Nc1ccc(Cl)cc1 [clofazimine] + O=[N+]([O-])c1cn2c(n1)OC[C@@H](OCc1ccc(OC(F)(F)F)cc1)C2 [pretomanid] + NC(=O)c1cnccn1 [pyrazinamide]
Conditions	AUC25, [3]	Einf, [4]	GRinf, [5]	total FIC50, [1]	total FIC90, [2]
in vitro model: acidic pH 5.7, time point: constant (~7 days, model-specific)	0.116	0.799	-0.189	-0.0503	–
in vitro model: acidic pH 5.7, time point: terminal (~4-5 doublings, model-specific)	0.0855	0.963	-0.286	-0.211	-0.383
in vitro model: intracellular J774, time point: constant = terminal	–	1	-0.589	–	0.069

Conditions	AUC25, [3]	Einf, [4]	GRinf, [5]	total FIC50, [1]	total FIC90, [2]
in vitro model: butyrate, time point: constant (~7 days, model-specific)	0.117	0.927	-0.101	-0.205	1.93
in vitro model: butyrate, time point: terminal (~4-5 doublings, model-specific)	0.0918	0.967	-0.0731	-0.348	0.119
in vitro model: cholesterol 0.05 mM, time point: constant (~7 days, model-specific)	0.136	0.671	-0.153	–	–
in vitro model: cholesterol 0.05 mM, time point: terminal (~4-5 doublings, model-specific)	0.108	0.917	-0.206	1.04	–
in vitro model: cholesterol-high 0.2 mM, time point: constant (~7 days, model-specific)	0.0983	0.866	-0.131	0.247	–
in vitro model: cholesterol-high 0.2 mM, time point: terminal (~4-5 doublings, model-specific)	0.0869	0.997	-0.572	0.565	0.223
in vitro model: dormancy (butyrate + nitrate, low O2), time point: constant (~7 days, model-specific)	0.0942	0.933	0.139	-1.02	-2
in vitro model: dormancy (butyrate + nitrate, low O2), time point: terminal (~4-5 doublings, model-specific)	0.0486	0.989	-0.2	-0.553	-0.326
in vitro model: standard 7H9 glycerol, time point: constant = terminal	0.128	0.947	-0.335	-0.2	–
in vitro model: valerate, time point: constant (~7 days, model-specific)	0.125	0.874	-0.0963	0.359	–
in vitro model: valerate, time point: terminal (~4-5 doublings, model-specific)	0.0562	0.928	0.0185	0.629	1.17

CC[C@@H](CO)NCCN[C@@H](CC)CO [ethambutol] + CC(=O)NC[C@H]1CN(c2ccc(N3CCOCC3)c(F)c2)C(=O)O1 [linezolid] + CO[C@H]1/C=C/O[C@@]2(C)Oc3c(C)c(O)c4c(O)c(c(/C=N/N5CCN(C6CCCC6)CC5)c(O)c4c3C2=O)NC(=O)/C(C)=C\C=C\[C@H](C)[C@H](O)[C@@H](C)[C@@H](O)[C@@H](C)[C@H](OC(C)=O)[C@@H]1C [rifapentine]
Conditions	AUC25, [3]	Einf, [4]	GRinf, [5]	total FIC50, [1]	total FIC90, [2]
in vitro model: acidic pH 5.7, time point: constant (~7 days, model-specific)	0.0936	0.872	-0.0867	0.452	–
in vitro model: acidic pH 5.7, time point: terminal (~4-5 doublings, model-specific)	0.0542	0.967	-0.0664	1.01	0.595
in vitro model: intracellular J774, time point: constant = terminal	–	0.962	-0.261	–	-1.64

Conditions	AUC25, [3]	Einf, [4]	GRinf, [5]	total FIC50, [1]	total FIC90, [2]
in vitro model: butyrate, time point: constant (~7 days, model-specific)	0.0551	0.886	0.0937	0.371	–
in vitro model: butyrate, time point: terminal (~4-5 doublings, model-specific)	0.0436	0.94	0.0645	0.251	-0.559
in vitro model: cholesterol 0.05 mM, time point: constant (~7 days, model-specific)	0.146	0.726	-0.109	-0.662	–
in vitro model: cholesterol 0.05 mM, time point: terminal (~4-5 doublings, model-specific)	0.154	0.936	-0.279	-1.58	–
in vitro model: cholesterol-high 0.2 mM, time point: constant (~7 days, model-specific)	0.102	0.996	-0.732	0.505	–
in vitro model: cholesterol-high 0.2 mM, time point: terminal (~4-5 doublings, model-specific)	0.103	1	-0.843	0.495	1.02
in vitro model: dormancy (butyrate + nitrate, low O2), time point: constant (~7 days, model-specific)	0.124	0.869	0.279	0.075	–
in vitro model: dormancy (butyrate + nitrate, low O2), time point: terminal (~4-5 doublings, model-specific)	0.131	0.996	-0.349	-0.164	1.09
in vitro model: standard 7H9 glycerol, time point: constant = terminal	0.0503	0.887	0.155	0.486	–
in vitro model: valerate, time point: constant (~7 days, model-specific)	0.0575	0.828	0.0988	0.319	–
in vitro model: valerate, time point: terminal (~4-5 doublings, model-specific)	0.0307	0.917	0.0733	0.429	–
